Data published in the CheMixHub viscosity set.

Assay: xn = mol fraction of the nth substance listed

COc1ccccc1 + CCCCCCO
viscosity [mPa·s], 101.33 kPa
Conditions | x1 = 0.0998 | x1 = 0.2 | x1 = 0.3002 | x1 = 0.4 | x1 = 0.5 | x1 = 0.6002 | x1 = 0.6997 | x1 = 0.8001 | x1 = 0.9
303.15 K | 3.055 | 2.413 | 1.969 | 1.661 | 1.423 | 1.27 | 1.097 | 1.009 | 0.927
313.15 K | 2.325 | 1.886 | 1.569 | 1.334 | 1.166 | 1.049 | 0.932 | 0.858 | 0.798
323.15 K | 1.798 | 1.481 | 1.248 | 1.107 | 0.966 | 0.878 | 0.786 | 0.744 | 0.699

Cc1ccccc1 + CC#N
Conditions | viscosity [mPa·s]
298.15 K, 101.3 kPa, x1 = 0.04717 | 0.348
298.15 K, 101.3 kPa, x1 = 0.1002 | 0.35
298.15 K, 101.3 kPa, x1 = 0.1603 | 0.365
298.15 K, 101.3 kPa, x1 = 0.229 | 0.38
298.15 K, 101.3 kPa, x1 = 0.3082 | 0.403
298.15 K, 101.3 kPa, x1 = 0.4006 | 0.427
298.15 K, 101.3 kPa, x1 = 0.5097 | 0.457
298.15 K, 101.3 kPa, x1 = 0.6406 | 0.487
298.15 K, 101.3 kPa, x1 = 0.8004 | 0.527
298.17 K, 100 kPa, x2 = 0.5 | 0.4526
298.19 K, 100 kPa, x2 = 0.25 | 0.5085
303 K, 100 kPa, x2 = 0.126 | 0.5031
303 K, 100 kPa, x2 = 0.2324 | 0.4911
303 K, 100 kPa, x2 = 0.3293 | 0.4787
303 K, 100 kPa, x2 = 0.4233 | 0.4725
303 K, 100 kPa, x2 = 0.5023 | 0.4621
303 K, 100 kPa, x2 = 0.6588 | 0.4355
303 K, 100 kPa, x2 = 0.7316 | 0.4231
303 K, 100 kPa, x2 = 0.876 | 0.4007
308 K, 100 kPa, x2 = 0.126 | 0.4825
308 K, 100 kPa, x2 = 0.2324 | 0.4755
308 K, 100 kPa, x2 = 0.3293 | 0.4625
308 K, 100 kPa, x2 = 0.4233 | 0.4525
308 K, 100 kPa, x2 = 0.5023 | 0.4436
308 K, 100 kPa, x2 = 0.6588 | 0.4166
308 K, 100 kPa, x2 = 0.7316 | 0.4038
308 K, 100 kPa, x2 = 0.876 | 0.3715
308.15 K, 101 kPa, x1 = 0.1038 | 0.3334
308.15 K, 101 kPa, x1 = 0.2993 | 0.3692
308.15 K, 101 kPa, x1 = 0.3885 | 0.3887
308.15 K, 101 kPa, x1 = 0.5986 | 0.424
308.15 K, 101 kPa, x1 = 0.6907 | 0.4457
308.15 K, 101 kPa, x1 = 0.7946 | 0.4617
308.15 K, 101 kPa, x1 = 0.8925 | 0.4789
308.15 K, 101.3 kPa, x1 = 0.04717 | 0.309
308.15 K, 101.3 kPa, x1 = 0.1002 | 0.309
308.15 K, 101.3 kPa, x1 = 0.1603 | 0.33
308.15 K, 101.3 kPa, x1 = 0.3082 | 0.375
308.15 K, 101.3 kPa, x1 = 0.4006 | 0.389
308.15 K, 101.3 kPa, x1 = 0.5097 | 0.421
308.15 K, 101.3 kPa, x1 = 0.6406 | 0.434
308.15 K, 101.3 kPa, x1 = 0.8004 | 0.45
313 K, 100 kPa, x2 = 0.126 | 0.4655
313 K, 100 kPa, x2 = 0.2324 | 0.4551
313 K, 100 kPa, x2 = 0.3293 | 0.4425
313 K, 100 kPa, x2 = 0.4233 | 0.4311
313 K, 100 kPa, x2 = 0.5023 | 0.4179
313 K, 100 kPa, x2 = 0.6588 | 0.4006
313 K, 100 kPa, x2 = 0.7316 | 0.3878
313 K, 100 kPa, x2 = 0.876 | 0.3512
323.05 K, 100 kPa, x2 = 0.75 | 0.308
323.08 K, 100 kPa, x2 = 0.25 | 0.3879
323.09 K, 100 kPa, x2 = 0.5 | 0.3497
